Results from US20250340519A1, “RADIOLABELLED COMPOUND” (OXFORD UNIVERSITY INNOVATION LIMITED, priority 2018, published 2025).

System: PANC-1 cells
Experiment: Cell uptake of [18F]olaparib in PANC-1 cells
Format: cell-based, human
Conditions: radiation dose-dependent
Description: PARP1 levels in a limited selection of PDAC cell lines were determined using Western blot and confirmed by immunofluorescence microscopy. […] Uptake was reported as a percentage of the total amount added, per mg of total protein recovered from the isolated cells, determined by BCA assay. Specificity of uptake was determined by blocking olaparib binding sites using an excess of cold, unlabeled olaparib, or other PARP inhibitors (rucaparib, talazoparib).
Cell uptake of ^18F-olaparib in Panc-1, MiaPaCa-2 and Capan-1 cells was determined as previously described (Cornelissen, B., Hu, M., McLarty, K., Costantini, D. & Reilly, R. M.
Cellular penetration and nuclear importation properties of 111In-labeled and 123I-labeled HIV-1 tat peptide immunoconjugates in BT-474 human breast cancer cells. Nucl Med Biol 34, 37-46, 2007; Thurber, G. M., Reiner, T., Yang, K. S., Kohler, R. H. & Weissleder, R. Effect of small-molecule modification on single-cell pharmacokinetics of PARP inhibitors. Molecular cancer therapeutics 13, 986-995, 2014; Reiner, T., et al. Imaging therapeutic PARP inhibition in vivo through bioorthogonally developed companion imaging agents. Neoplasia 14, 169-177, 2012). Aliquots of Panc-1, MiaPaca-2, and Capan-1 cells (1.5×10^5 cells/well) were seeded in 24-well plates in warm cell culture medium (500 μL) and the cells were allowed to adhere overnight. Cells were irradiated (10 Gy; dose rate 0.8 Gy/min) or sham-irradiated and then returned to an incubator (37° C., 5% CO2) for 2 h. […] In the blocking groups, non-radioactive olaparib, talazoparib, or rucaparib were also added in increasing concentrations (10 pM-10 μM. After 30 or 60 minutes, the cell culture medium was removed and combined with two washes (500 μL) of cell culture medium. The remaining monolayer of cells was then lysed with 0.1 M sodium hydroxide for 20 minutes at room temperature. The amount of radioactivity contained within the cell culture medium and the cell lysate fractions was measured using a gamma counter. Protein levels from parallel plates were quantified using a Pierce BCA protein assay kit (Thermo Scientific) according to the manufacturer's recommendations and bovine serum albumin was used as the protein standard. Cell uptake levels of [^18F]-olaparib were normalised to percent of the total added radioactivity per milligram protein. […] IC50 values were calculated using GraphPad Prism software (GraphPad Software, San Diego, CA, USA). […]
Aliquots of Panc-1, MiaPaca-2, and Capan-1 cells (7.5×10^4 cells/well) were seeded in 24-well plates in warm cell culture medium (500 μL). […] The amount of radioactivity contained within the cell culture medium and the cell lysate fractions was measured using a gamma counter. […]

O=C(c1cc(Cc2n[nH]c(=O)c3ccccc23)ccc1[18F])N1CCN(C(=O)C2CC2)CC1 [[^18F]olaparib]
[^18F]olaparib uptake after gamma-irradiation: increased
